According to US4464388A, “Use of prostaglandin analogues to treat cytodamage” (priority 1982, dated 1984):
Like-named read-outs stand apart in the source and are kept apart here.

Assays:
[1] = system: carbon tetrachloride (CCl4) induced liver damage; assay: Effect on carbon tetrachloride (CCl4) induced liver damage (liver cell necrosis type); assay type: in vivo, Male Wistar rats; conditions: for inhibition in vivo at 0.1 mg/kg / inhibition in vivo at 0.02 mg/kg / inhibition in vivo at 0.5 mg/kg / inhibition in vivo at 0.05 mg/kg / inhibition in vivo at 1 mg/kg / inhibition in vivo at 1.5 mg/kg: Rattus norvegicus, 24 h; for inhibition in vivo at 0.02 mg/kg: 20 μg/kg; for inhibition in vivo at 0.5 mg/kg: 500 μg/kg; for inhibition in vivo at 0.05 mg/kg: 50 μg/kg; for inhibition in vivo at 1 mg/kg: 1000 μg/kg; for inhibition in vivo at 1.5 mg/kg: 1500 μg/kg
Experimental: Effect on carbon tetrachloride (CCl4) induced liver damage (liver cell necrosis type)
Male Wistar rats weighing 180-220 g were used. Rats were dosed intraperitoneally with CCl4 dissolved in olive oil (5%, w/v) at a volume of 500 μl/kg after 18 hr starvation. The compound under test was administered orally (p.o.) or subcutaneously (s.c.) 6 and 12 hr after CCl4 injection in rats and blood was collected after 24 hr. Plasma glutamic oxaloacetic transaminase (GOT) and glutamic pyruvic transaminase (GPT) activities were determined by ultraviolet absorbance methods (optimised method based on the recommendations of the Deutsche Gesellschaft fur Klinische Chemie). The effects of the compounds tested were assessed by the inhibition rate in comparison with controls. Inhibition rate was calculated by the following formula. [formula] The results obtained are shown in the following Tables 1A and 1B for compounds of the general formula: [drawing 10] wherein R, R^1 and --X--Y--Z-- have the meanings indicated.
In Tables 1A, 1B and 2 to 5 hereinafter the dose shown in the amount given at each administration of the compound under test.

[2] = Acute toxicity test; conditions: mouse, in vivo; oral, mice observed for 14 days
Experimental: Male JCL-ICR mice (non SPF mice) from 7 weeks of age were used. The compound under test was dissolved in 5% v/v ethanol containing 0.4% w/v Tween 80 (Tween is a registered trademark) and administered orally to the mice. […] The deaths observed were all within 72 hrs after treatment.

[3] = system: blood platelet aggregation; conditions: cited from earlier work
[4] = system: artery; conditions: cited from earlier work
[5] = po, p.o., 100 μg/kg, plasma GOT after 24 hr, read-out: inhibition rate GOT
[6] = po, p.o., 100 μg/kg, plasma GPT after 24 hr, read-out: inhibition rate GPT
[7] = sc, s.c., plasma GOT after 24 hr, read-out: inhibition rate GOT
[8] = sc, s.c., plasma GPT after 24 hr, read-out: inhibition rate GPT
[9] = po, p.o., plasma GOT after 24 hr, read-out: inhibition rate GOT
[10] = po, p.o., plasma GPT after 24 hr, read-out: inhibition rate GPT

`CCCCC1CCC([C@H](O)/C=C/[C@H]2[C@H](O)CC(=O)[C@@H]2CC(=O)CCCCC(=O)OC)C1` (single isomer, unassigned) [Compound 8, 15-(3-Butylcyclopentyl)-16,17,18,19,20-pentanor-6-oxo-PGE1 methyl ester] gave an inhibition in vivo at 0.1 mg/kg [1, 5] of 77.7%, an inhibition in vivo at 0.1 mg/kg [1, 6] of 73.7% and an inhibition in vivo at 0.02 mg/kg [1, 7] of 44.4%. The inhibition in vivo at 0.02 mg/kg [1, 8] was 39.3% and the LD50 at 336 h [2] was 10 to 20 mg/kg.

With `CCCC1CCC([C@H](O)/C=C/[C@H]2[C@H](O)CC(=O)[C@@H]2CC(=O)CCCCC(=O)OC)C1` (single isomer, unassigned) [Compound 12, 15-(3-Propylcyclopentyl)-16,17,18,19,20-pentanor-6-oxo-PGE1 methyl ester] the “inhibition rate GOT” value ([1]; p.o., 100 μg/kg, plasma GOT after 24 hr) was 25.4% and the “inhibition rate GPT” value ([1]; p.o., 100 μg/kg, plasma GPT after 24 hr) was 22.2%.

For `CCCC1CCC([C@H](O)/C=C/[C@@H]2[C@H]3CC(CCCCC(=O)OC)=N[C@H]3C[C@H]2O)C1` (single isomer, unassigned) [Compound 14, 15-(3-Propylcyclopentyl)-16,17,18,19,20-pentanor-6,9α-nitrilo-PGI1 methyl ester], the inhibition in vivo at 0.5 mg/kg [1, 9] was 39.8%, the inhibition in vivo at 0.5 mg/kg [1, 10] was 20.8% and the inhibition in vivo at 0.5 mg/kg [1, 7] was 68.6%. For the same molecule, the inhibition in vivo at 0.5 mg/kg [1, 8] was 64.2% and the LD50 at 336 h [2] was 40 to 100 mg/kg.

For `CCC1CC([C@H](O)/C=C/[C@H]2[C@H](O)CC(=O)[C@@H]2CC(=O)CCCCC(=O)OC)C1` (stereo partly shown) [Compound 1, 15-(3-Ethylcyclobutyl)-16,17,18,19 20-pentanor-6-oxo-PGE1 methyl ester], the inhibition in vivo at 0.05 mg/kg [1, 7] was 21% and the inhibition in vivo at 0.05 mg/kg [1, 8] was 0%.

`CCCC1CC([C@H](O)/C=C/[C@H]2[C@H](O)CC(=O)[C@@H]2CC(=O)CCCCC(=O)OC)C1` (stereo partly shown) [Compound 2, 15-(3-Propylcyclobutyl)-16,17,18,19,20-pentanor-6-oxo-PGE1 methyl ester] showed an inhibition in vivo at 0.05 mg/kg [1, 7] of 52.4% and an inhibition in vivo at 0.05 mg/kg [1, 8] of 17.3%.

For `COC(=O)CCCCC(=O)C[C@H]1C(=O)C[C@@H](O)[C@@H]1/C=C/[C@@H](O)C1CCCC1` [Compound 3, 15-Cyclopentyl-16,17,18,19,20-pentanor-6-oxo-PGE1 methyl ester], the inhibition in vivo at 0.1 mg/kg [1, 5] was 19%, the inhibition in vivo at 0.1 mg/kg [1, 6] was 30.5% and the LD50 at 336 h [2] was 10 to 20 mg/kg.

In the case of `CCCC1CCC([C@H](O)/C=C/[C@H]2[C@H](O)CC(=O)[C@@H]2CC(=O)CCCCC(=O)OC)C1` (stereo partly shown) [Compound 4, 15-(3-Propylcyclopentyl)-16,17,18,19,20-pentanor-6-oxo-PGE1 methyl ester], the inhibition in vivo at 0.1 mg/kg [1, 5] is reported as 77% and the inhibition in vivo at 0.1 mg/kg [1, 6] is reported as 51.5%.

For `CCCC1CCC([C@H](O)/C=C/[C@H]2[C@H](O)CC(=O)[C@@H]2CC(=O)CCCCC(=O)O)C1` (stereo partly shown) [Compound 5, 15-(3-Propylcyclopentyl)-16,17,18,19,20-pentanor-6-oxo-PGE1], the inhibition in vivo at 0.1 mg/kg [1, 5] was 32.6% and the inhibition in vivo at 0.1 mg/kg [1, 6] was 44.5%.

Work on `CCCCC1CCC([C@H](O)/C=C/[C@H]2[C@H](O)CC(=O)[C@@H]2CC(=O)CCCCC(=O)OC)C1` (stereo partly shown) [Compound 7, 15-(3-Butylcyclopentyl)-16,17,18,19,20-pentanor-6-oxo-PGE1 methyl ester] yielded an inhibition in vivo at 0.1 mg/kg [1, 5] of 62.7% and an inhibition in vivo at 0.1 mg/kg [1, 6] of 55.1%.

Molecule `COC(=O)CCCCC(=O)C[C@H]1C(=O)C[C@@H](O)[C@@H]1/C=C/[C@@H](O)C1CCC(C)CC1` (stereo partly shown) [Compound 9, 15-(4-Methylcyclohexyl)-16,17,18,19,20-pentanor-6-oxo-PGE1 methyl ester] has an inhibition in vivo at 0.1 mg/kg [1, 5] of 21%, an inhibition in vivo at 0.1 mg/kg [1, 6] of 0% and an inhibition in vivo at 0.05 mg/kg [1, 7] of 13.1%. The inhibition in vivo at 0.05 mg/kg [1, 8] was 8.8%.

For `CCC1CCC([C@H](O)/C=C/[C@H]2[C@H](O)CC(=O)[C@@H]2CC(=O)CCCCC(=O)OC)CC1` (stereo partly shown) [Compound 10, 15-(4-Ethylcyclohexyl)-16,17,18,19,20-pentanor-6-oxo-PGE1 methyl ester], the inhibition in vivo at 0.05 mg/kg [1, 7] was 35.6% and the inhibition in vivo at 0.05 mg/kg [1, 8] was 12.2%.

Molecule `CCCC1CCC([C@H](O)/C=C/[C@H]2[C@H](O)CC(=O)[C@@H]2CC(=O)CCCCC(=O)OC)CC1` (stereo partly shown) [Compound 11, 15-(4-Propylcyclohexyl)-16,17,18,19,20-pentanor-6-oxo-PGE1 methyl ester] has an inhibition in vivo at 0.05 mg/kg [1, 7] of 48.5% and an inhibition in vivo at 0.05 mg/kg [1, 8] of 45.1%.

Molecule `CCCC1CCC([C@H](O)/C=C/[C@@H]2[C@H]3CC(CCCCC(=O)OC)=N[C@H]3C[C@H]2O)C1` (stereo partly drawn) [Compound 13, 15-(3-Propylcyclopentyl)-16,17,18,19,20-pentanor-6,9α-nitrilo-PGI1 methyl ester] has an inhibition in vivo at 1 mg/kg [1, 9] of 46% and an inhibition in vivo at 1 mg/kg [1, 10] of 32.5%.

In the case of `CCCCC1CCC([C@H](O)/C=C/[C@@H]2[C@H]3CC(CCCCC(=O)OC)=N[C@H]3C[C@H]2O)C1` (stereo partly drawn) [Compound 15, 15-(3-Butylcyclopentyl)-16,17,18,19,20-pentanor-6,9α-nitrilo-PGI1 methyl ester], the inhibition in vivo at 1 mg/kg [1, 9] is reported as 45.5% and the inhibition in vivo at 1 mg/kg [1, 10] is reported as 15.6%.

In the case of `CCCC1CCC([C@H](O)/C=C/[C@@H]2[C@H]3CC(CCCCC(=O)OC)O[C@H]3C[C@H]2O)C1` (stereo partly shown) [Compound 16, 15-(3-Propylcyclopentyl)-16,17,18,19,20-pentanor-PGI1 methyl ester], the inhibition in vivo at 1.5 mg/kg [1, 9] is reported as 51% and the inhibition in vivo at 1.5 mg/kg [1, 10] is reported as 53%.

`CCCC1CCC([C@H](O)/C=C/[C@@H]2[C@H]3C[C@H](CCCCC(=O)OC)O[C@H]3C[C@H]2O)C1` (stereo partly drawn) [Compound 17, (6S)-15-(3-propylcyclopentyl)-16,17,18,19,20-pentanor-PGI1 methyl ester] gave an inhibition in vivo at 1 mg/kg [1, 9] of 32.9% and an inhibition in vivo at 1 mg/kg [1, 10] of 32%.

In the case of `CCCCC[C@H](O)/C=C/[C@H]1O[C@H]2C[C@H](O2)[C@@H]1C/C=C\CCCC(=O)O` [thromboxane A2], the “effect on blood platelet aggregation” value [3] is listed as “aggregating activity” and the “activity on the artery” value [4] is listed as “contracting activity”.
